Among the data in PubChem BioAssay (NCI) are GI50 and TGI values, retold here.

SMILES strings stand for the structures.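 Compound exposure: 48 hours, 5 concentrations, 96-well plates. The concentration for 50% growth inhibition is given as GI50. TGI marks complete inhibition of growth.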

What all share (test): inhibition of tumour cell growth, NCI panel, 48 h
Test [1] relates to ACHN renal.
Test [2] concerns SF-268 CNS.
Test [3] deals with UO-31 renal.
For test [4], the system named is SNB-75 CNS.
The subject of test [5] is SK-MEL-2 melanoma.
Test [6] relates to COLO 205 colon.
Test [7] relates to NCI-H226 lung.
In test [8] the test system is SF-539 CNS.
Test [9] deals with UACC-62 melanoma.

As for `O=C(O)C1(Cc2cccc(Nc3nccs3)n2)CCC(Oc2cccc(Cl)c2F)CC1` (configuration not stated), the GI50 in [1] is 14.4 µM; in test [2] it was 25.1 µM; in [3] it was 16.3 µM; in [4], 11 µM; in test [5] it was 17.6 µM; in test [6] it was 0.876 µM. The GI50 was 11.6 µM in test [7] and 6.73 µM in [8]. Also, the TGI in [1] was more than 100 µM; in test [2] it was more than 100 µM; in test [3], 79.8 µM; in test [4], 62.2 µM; in test [5], 36.4 µM; in [6], 19.3 µM. For the same compound, the TGI in test [7] is 39.6 µM; in [8], 24.4 µM.
For `CCC(C(=O)[O-])C(=O)[O-].CCC(C(=O)[O-])C(=O)[O-].N.N.NCCCCCCN.[Pt+4].[Pt+4]`, the GI50 was 6.77 µM in [1]; 11.2 µM in test [2]; 7.06 µM in [3]; 9.85 µM in [4]; 8.4 µM in test [5]; 0.883 µM in test [6]. Besides, the GI50 is 10 µM in test [7], 10.4 µM in test [8] and 7.5 µM in test [9]. Besides, the TGI in [1] came to 13.4 µM; in test [2], 24 µM; in [3] it was 13.6 µM; in [4] it was 20.4 µM; in [5], 16.9 µM; in test [6] it was 1.66 µM. In addition, the TGI in [7] turned out to be 20.2 µM; in test [8], 21.7 µM; in test [9], 14.6 µM.
Turning to `Cc1ccc(C)c(NC(=O)CCc2nc(=S)[nH][nH]2)c1`, the TGI in test [1], in [2], in test [3], in [4], in test [5] and in test [6] was more than 100 µM in each case. Further, the TGI in test [7], in test [8] and in test [9] was more than 100 µM each time.
With `COc1ccc(C(=O)c2cc3c(N)c(C(=O)Nc4cccc(Cl)c4C)sc3nc2C)cc1`, the GI50 in test [1] was 0.202 µM; in test [2], 0.419 µM; in [3], 0.634 µM; in [5], 0.215 µM; in [6] it was 0.109 µM; in test [7] it was 0.277 µM. Moreover, the GI50 was 0.0679 µM in test [8] and 0.12 µM in test [9]. For the same compound, the TGI is more than 25 µM in test [1]; more than 25 µM in test [2]; more than 25 µM in test [3]; more than 25 µM in [5]; 7.13 µM in test [6]; more than 25 µM in [7]. In addition, the TGI in [8] is 0.169 µM; in test [9], more than 25 µM.
Take `O=C(O)Cn1c(=O)[nH]c(=O)c2c1ncn2Cc1ccccc1`: the TGI in test [1], in [2], in test [3], in [4], in test [5] and in test [6] was more than 100 µM in each case. For the same compound, the TGI in test [7], in test [8] and in test [9] was more than 100 µM throughout.
As for `CC(C)(C)C(=O)O[C@@H]1COC2C(O)COC21` (some centres not stated), the TGI in [1], in [2], in test [3], in [4], in test [6] and in test [8] was more than 100 µM each time. The same compound yielded a TGI in test [9] of more than 100 µM.
`CN(C)c1ccc(/C=N\N2C(=O)c3ccccc3C2=O)cc1`: the TGI in test [1], in test [2], in test [3], in test [4], in test [5] and in test [7] was more than 100 µM throughout. For the same compound, the TGI in test [8] and in test [9] was more than 100 µM in each case.
`CC(=O)OC1CC2C(C)(C)C(=O)C=CC2(C)C2CCC3(C)C(c4ccoc4)OC(=O)C4OC43C12C` (configuration not stated): the TGI was more than 100 µM in [1]; more than 100 µM in [2]; 15.2 µM in test [3]; more than 100 µM in [4]; 39.2 µM in [5]; 21.7 µM in [6]. Moreover, the TGI is more than 100 µM in test [7], 26.6 µM in test [8] and 18.4 µM in test [9].
For the compound `CCC1CCc2nc3sc(C(=O)Nc4ccccc4C)c(N)c3cc2C1` (configuration not stated), the GI50 in test [1] is 0.835 µM; in test [2], 0.706 µM; in [3] it was 0.998 µM; in test [4] it was 0.312 µM; in [5], 0.46 µM; in test [6], 0.451 µM. For the same compound, the GI50 in test [7] was more than 100 µM; in test [8] it was 0.398 µM; in test [9], 0.329 µM. For the same compound, the TGI in test [1], in [2], in [3], in test [4], in [5] and in test [6] was more than 100 µM each time. Also, the TGI in [7], in [8] and in [9] was more than 100 µM throughout.
With `CC(=O)[O-].O=C([CH-]C(=O)c1ccccc1)c1ccccc1.O=C([CH-]C(=O)c1ccccc1)c1ccccc1.[Y+3]`, the GI50 in test [1] was 5.52 µM; in [2] it was 4.27 µM; in [3] it was 3.84 µM; in test [4] it was 3.1 µM; in test [5], 2.85 µM; in [6], 8.61 µM. Also, the GI50 in test [7] was 2.56 µM; in [8], 8.67 µM; in [9], 3.8 µM. The TGI in [1] was 22.9 µM; in test [2], 31.3 µM; in test [3] it was 9.66 µM; in test [4], 7.42 µM; in test [5], 9.69 µM; in [6], 22.1 µM. The results for the TGI in test [7], in [8] and in test [9] were 9.69 µM, 37 µM and 17.8 µM, respectively.
Regarding `N#CC1(C=O)c2ccccc2C=CN1C(=O)c1ccccc1` (configuration not stated), the TGI was more than 100 µM in test [1]; more than 100 µM in test [2]; more than 100 µM in test [3]; 66.9 µM in test [4]; more than 100 µM in [5]; more than 100 µM in test [6]. Further, the TGI in [7] and in test [9] was more than 100 µM each time.
Take `COCCOCC(=O)N(CCn1ccc(NC(c2ccccc2)(c2ccccc2)c2ccccc2)nc1=O)CCn1cnc2nc(N)[nH]c(=O)c21`: the TGI in test [1], in test [2], in test [3], in test [4], in [5] and in test [6] was more than 100 µM each time. The TGI in [7], in test [8] and in test [9] was more than 100 µM each time.
In the case of `Cc1nc(Nc2ccc([N+](=O)[O-])cc2)sc1C(/C=C/c1ccc(N(C)C)cc1)=N/NC(=O)c1ccccc1`, the TGI in test [1], in test [2], in [3], in test [4], in [5] and in test [6] was more than 100 µM throughout. The results for the TGI in [7], in test [8] and in [9] were more than 100 µM, more than 100 µM and 28.5 µM, respectively.
On to `O=C(NNC(=O)c1cc(/C=C/c2cccc([N+](=O)[O-])c2)[nH]c(=S)n1)Nc1ccc(Cl)cc1`, for which the TGI was more than 100 µM in test [1]; more than 100 µM in test [2]; more than 100 µM in test [3]; more than 100 µM in test [4]; more than 100 µM in test [5]; 37.2 µM in test [6]. Further, the TGI in test [7] and in [9] was more than 100 µM each time.
`O=C1C2c3[nH]c4ccccc4c3[C@@H]3CCCCC3C2C(=O)N1c1ccccc1` (some centres not stated): the TGI in [1] turned out to be 81.9 µM; in test [2], 62.9 µM; in test [3], 45 µM; in test [4], 71.5 µM; in test [6] it was 33.6 µM; in [7], 42.2 µM. In test [9], this compound showed a TGI of 38.5 µM.
With `COC(OC)[C@@H](C)[C@H](O)[C@](C)(O)C1OC(C)(C)OC(C(C)C=C(C)C)C1C` (some centres not stated), the TGI in [1], in [2], in test [3], in test [4], in test [5] and in [6] was more than 100 µM throughout. Further, the TGI in test [7], in [8] and in test [9] was more than 100 µM throughout.
As to `c1ccc(COCC2OC3c4ccccc4COC3C2OCc2ccccc2)cc1` (configuration not stated), the TGI in test [1], in [3], in test [4], in test [5], in [6] and in test [7] was more than 100 µM throughout. Further, the TGI in test [8] and in test [9] was more than 100 µM each time.
`O=C1/C(=C/c2ccccc2)CN(C(=O)OCc2ccccc2)C/C1=C\c1ccccc1`: the TGI in [1] was 25.7 µM; in [2] it was 30.7 µM; in test [3] it was 24 µM; in test [4], more than 31.6 µM; in test [5], 44.8 µM; in [6] it was 34.1 µM. The TGI in test [7] was 35.2 µM; in test [8], 30.9 µM; in test [9], 20.2 µM.
Consider `COC12CC(=O)C(C(C)=O)=C(O)C1(C)c1c(OC(C)=O)c(C)c(O)c(C(C)=O)c1O2` (configuration not stated), for which the TGI in test [1] is 99.2 µM; in [2] it was more than 100 µM; in test [3] it was 33 µM; in [4], 80.6 µM; in [5] it was 53.6 µM; in test [7], 65.7 µM. Moreover, the figures for the TGI in test [8] and in [9] were more than 100 µM and 23.4 µM, respectively.
For the compound `CCCCCCCCCCCCN(O)C(=O)c1ccccc1`, the TGI is more than 100 µM in test [1]; 72.2 µM in test [2]; more than 100 µM in [3]; 82.7 µM in test [4]; more than 100 µM in test [5]; 63.6 µM in test [8]. In addition, in test [9], the TGI is more than 100 µM.
Take `COc1ccc(/C(=N/NC(N)=O)C(c2ccc(OC)cc2)C2C(=O)Oc3ccccc32)cc1` (configuration not stated): the TGI in [2], in test [3], in test [4], in test [6], in [7] and in test [8] was more than 100 µM each time. The TGI in test [9] is more than 100 µM.
As to `CCOC(=O)NC(=O)c1cn(CCN2CCN(C(=O)CCCCCCCCCCNc3ncnc4nc[nH]c34)CC2)c(=O)[nH]c1=O`, the TGI in test [1], in test [2], in test [3], in [4], in [5] and in test [6] was more than 100 µM in each case. For the same compound, the TGI in test [7], in [8] and in test [9] was more than 100 µM each time.
Regarding `COc1cc(-c2cc(=O)c3cc(C)c(C)c(C(=O)O)c3o2)cc(OC)c1OC`, the TGI was more than 100 µM in test [1]; more than 100 µM in test [2]; more than 100 µM in [3]; 55.9 µM in [4]; more than 100 µM in test [5]; more than 100 µM in [6]. The TGI in test [8] and in [9] was more than 100 µM in each case.
For the compound `Cn1c2c(c3ccccc31)CCN(CCCCN1CCN(c3cccc(Cl)c3)CC1)C2=O`, the TGI in test [1] was determined as 37.6 µM; in test [2], 49.9 µM; in [3], 22.4 µM; in test [4], 9.61 µM; in test [5] it was 31.1 µM; in test [6], 11.2 µM. Moreover, the TGI turned out to be 26.5 µM in [8] and 23.6 µM in test [9].
With `COc1ccc(CNc2nc3c(NC(C)=O)cc(C(F)(F)F)cc3nc2-c2ccccc2)cc1OC`, the TGI is more than 100 µM in test [2]; more than 100 µM in test [3]; 4.48 µM in test [4]; more than 100 µM in [5]; more than 100 µM in [6]; more than 100 µM in test [8]. This compound also had a TGI in test [9] of more than 100 µM.
For `CN(C)c1n/c(=N/c2ncn[nH]2)ss1`, the TGI in [1], in test [2], in test [3], in test [4], in test [5] and in test [7] was more than 100 µM throughout. Further, the TGI in test [8] and in [9] was more than 100 µM in each case.
